Assay results: publication PMC5218480 (PLoS ONE, 2017)

Test system: MV-4-11 cells
Experiment: Gene expression microarray analysis (Affymetrix PrimeView) and GSEA
Format: cell-based, human
Set-up: RFU PODN (11730768_x_at) / Fold change /veh PODN (11730768_x_at) / RFU LINC00158 (11744669_a_at) / Fold change /veh LINC00158 (11744669_a_at) / RFU DUSP10 (11751237_a_at) / Fold change /veh DUSP10 (11751237_a_at) / RFU ID3 (11757404_x_at) / Fold change /veh ID3 (11757404_x_at) / RFU PLEKHG5 (11737974_s_at) / Fold change /veh PLEKHG5 (11737974_s_at) / RFU LRRC4B (11730491_at) / Fold change /veh LRRC4B (11730491_at) / RFU GIMAP4 (11747438_a_at) / Fold change /veh GIMAP4 (11747438_a_at) / RFU KRT8 (11758183_x_at) / Fold change /veh KRT8 (11758183_x_at) / RFU CNN1 (11734310_a_at) / Fold change /veh CNN1 (11734310_a_at) / RFU VPS37D (11726825_at) / Fold change /veh VPS37D (11726825_at) / RFU C10orf10 (11716522_x_at) / Fold change /veh C10orf10 (11716522_x_at) / RFU KIR2DL2 /// KIR2DL4 /// KIR2DL5A /// KIR2DL5B /// KIR2DS1 /// KIR2DS2 /// KIR2DS3 /// KIR2DS4 /// KIR3DL3 /// KIR3DL3 /// KIR3DS1 (11738374_at) / Fold change /veh KIR2DL2 /// KIR2DL4 /// KIR2DL5A /// KIR2DL5B /// KIR2DS1 /// KIR2DS2 /// KIR2DS3 /// KIR2DS4 /// KIR3DL3 /// KIR3DL3 /// KIR3DS1 (11738374_at) / RFU C1QL1 (11718748_at) / Fold change /veh C1QL1 (11718748_at) / RFU TMPRSS4 (11747572_a_at) / Fold change /veh TMPRSS4 (11747572_a_at) / RFU HAMP (11756126_x_at) / Fold change /veh HAMP (11756126_x_at) / RFU RNFT2 (11725882_a_at) / Fold change /veh RNFT2 (11725882_a_at) / RFU NR4A2 (11747474_a_at) / Fold change /veh NR4A2 (11747474_a_at) / RFU ABCC12 (11746883_a_at) / Fold change /veh ABCC12 (11746883_a_at) / RFU TMEM136 (11760407_x_at) / Fold change /veh TMEM136 (11760407_x_at) / RFU CLDN22 /// WWC2 (11732394_at) / Fold change /veh CLDN22 /// WWC2 (11732394_at) / RFU HLA-DPB1 (11760878_x_at) / Fold change /veh HLA-DPB1 (11760878_x_at) / RFU SPINT1 (11716480_a_at) / Fold change /veh SPINT1 (11716480_a_at) / RFU GAP43 (11754022_s_at) / Fold change /veh GAP43 (11754022_s_at) / RFU A4GNT (11735810_at) / Fold change /veh A4GNT (11735810_at) / RFU PRB3 (11715151_x_at) / Fold change /veh PRB3 (11715151_x_at) / RFU TUBB4B (11761932_at) / Fold change /veh TUBB4B (11761932_at) / RFU CAPN14 (11732068_a_at) / Fold change /veh CAPN14 (11732068_a_at) / RFU TMCC2 (11721928_a_at) / Fold change /veh TMCC2 (11721928_a_at) / RFU IRGQ (11745062_a_at) / Fold change /veh IRGQ (11745062_a_at) / RFU FAM174B (11720279_a_at) / Fold change /veh FAM174B (11720279_a_at) / RFU TMPRSS4 (11748680_a_at) / Fold change /veh TMPRSS4 (11748680_a_at) / RFU FAM212B (11763350_a_at) / Fold change /veh FAM212B (11763350_a_at) / RFU PLEKHG5 (11743358_a_at) / Fold change /veh PLEKHG5 (11743358_a_at) / RFU ZSCAN30 (11745921_a_at) / Fold change /veh ZSCAN30 (11745921_a_at) / RFU CMKLR1 (11741424_a_at) / Fold change /veh CMKLR1 (11741424_a_at) / RFU LOC101060620 /// MAPK8IP1 (11723275_at) / Fold change /veh LOC101060620 /// MAPK8IP1 (11723275_at) / RFU SPTSSB (11747773_x_at) / Fold change /veh SPTSSB (11747773_x_at) / RFU PRSS12 (11739890_at) / Fold change /veh PRSS12 (11739890_at) / RFU BIN1 (11741810_x_at) / Fold change /veh BIN1 (11741810_x_at) / RFU WNT11 (11732464_a_at) / Fold change /veh WNT11 (11732464_a_at) / RFU C10orf10 (11716521_a_at) / Fold change /veh C10orf10 (11716521_a_at) / RFU C5orf56 (11738089_at) / Fold change /veh C5orf56 (11738089_at) / RFU CYB561 (11721691_x_at) / Fold change /veh CYB561 (11721691_x_at) / RFU ANKRD19P (11752326_a_at) / Fold change /veh ANKRD19P (11752326_a_at) / RFU OR2T12 /// OR2T33 /// OR2T8 (11738714_s_at) / Fold change /veh OR2T12 /// OR2T33 /// OR2T8 (11738714_s_at) / RFU VCAN (11748164_a_at) / Fold change /veh VCAN (11748164_a_at) / RFU JSRP1 (11732532_at) / Fold change /veh JSRP1 (11732532_at) / RFU KRTAP10-11 (11738290_x_at) / Fold change /veh KRTAP10-11 (11738290_x_at) / RFU MYO3A (11730013_a_at) / Fold change /veh MYO3A (11730013_a_at) / RFU EBF3 (11725865_a_at) / Fold change /veh EBF3 (11725865_a_at) / RFU CAMK2N1 (11719241_x_at) / Fold change /veh CAMK2N1 (11719241_x_at) / RFU C5orf56 (11738088_a_at) / Fold change /veh C5orf56 (11738088_a_at) / RFU OLFML3 (11715873_a_at) / Fold change /veh OLFML3 (11715873_a_at) / RFU LOC100653217 /// NTM (11731650_a_at) / Fold change /veh LOC100653217 /// NTM (11731650_a_at) / RFU MAPK11 (11762145_a_at) / Fold change /veh MAPK11 (11762145_a_at) / RFU FIZ1 (11724087_x_at) / Fold change /veh FIZ1 (11724087_x_at) / RFU OASL (11726364_x_at) / Fold change /veh OASL (11726364_x_at) / RFU SOX15 (11748057_x_at) / Fold change /veh SOX15 (11748057_x_at) / RFU CD79A (11719716_a_at) / Fold change /veh CD79A (11719716_a_at) / RFU HIST1H1D (11736915_at) / Fold change /veh HIST1H1D (11736915_at) / RFU CASKIN2 (11723855_a_at) / Fold change /veh CASKIN2 (11723855_a_at) / RFU LOC730098 (11760151_x_at) / Fold change /veh LOC730098 (11760151_x_at) / RFU OR4N2 (11742367_at) / Fold change /veh OR4N2 (11742367_at) / RFU PRRT2 (11749266_a_at) / Fold change /veh PRRT2 (11749266_a_at) / RFU SNX32 (11753110_a_at) / Fold change /veh SNX32 (11753110_a_at) / RFU CDHR5 (11726645_a_at) / Fold change /veh CDHR5 (11726645_a_at) / RFU RCAN1 (11760418_a_at) / Fold change /veh RCAN1 (11760418_a_at) / RFU FAM167A (11723789_a_at) / Fold change /veh FAM167A (11723789_a_at) / RFU FAM26E (11764081_at) / Fold change /veh FAM26E (11764081_at) / RFU ISYNA1 (11749810_s_at) / Fold change /veh ISYNA1 (11749810_s_at) / RFU ACY1 (11761880_at) / Fold change /veh ACY1 (11761880_at) / RFU 11764098_at / Fold change /veh 11764098_at / RFU SAMD14 (11745864_x_at) / Fold change /veh SAMD14 (11745864_x_at) / RFU NPB (11741838_a_at) / Fold change /veh NPB (11741838_a_at) / RFU TMPRSS6 (11731388_a_at) / Fold change /veh TMPRSS6 (11731388_a_at) / RFU KRTAP10-2 (11738614_at) / Fold change /veh KRTAP10-2 (11738614_at) / RFU ARHGAP8 /// PRR5-ARHGAP8 (11727945_x_at) / Fold change /veh ARHGAP8 /// PRR5-ARHGAP8 (11727945_x_at) / RFU KRTAP5-7 /// NADSYN1 (11734609_at) / Fold change /veh KRTAP5-7 /// NADSYN1 (11734609_at) / RFU RASL12 (11751679_a_at) / Fold change /veh RASL12 (11751679_a_at) / RFU CDKN2B (11736163_a_at) / Fold change /veh CDKN2B (11736163_a_at) / RFU PRF1 (11729649_at) / Fold change /veh PRF1 (11729649_at) / RFU, ZNF638 /// ZNF638-IT1 / Fold change vs veh, ZNF638 /// ZNF638-IT1 / RFU, PANK3 / Fold change vs veh, PANK3 / RFU, SH3YL1 / Fold change vs veh, SH3YL1 / RFU, ZEB2 / Fold change vs veh, ZEB2 / RFU, NRIP1 / Fold change vs veh, NRIP1 / RFU, PTTG1IP / Fold change vs veh, PTTG1IP / RFU, CAPN2 / Fold change vs veh, CAPN2 / RFU, MED14 / Fold change vs veh, MED14 / RFU, SNORA58 / Fold change vs veh, SNORA58 / RFU, C1orf63 / Fold change vs veh, C1orf63 / RFU, LRRFIP1 / Fold change vs veh, LRRFIP1 / RFU, NDUFAF7 / Fold change vs veh, NDUFAF7 / RFU, SLC12A2 / Fold change vs veh, SLC12A2 / RFU, IBTK / Fold change vs veh, IBTK / RFU, ESF1 / Fold change vs veh, ESF1 / Fold change vs veh, TMEM50B / RFU, TAOK1 / Fold change vs veh, TAOK1 / RFU, ACBD3 / Fold change vs veh, ACBD3 / RFU, TMA16 / Fold change vs veh, TMA16 / RFU, RWDD3 / Fold change vs veh, RWDD3 / RFU, BCAT1 / Fold change vs veh, BCAT1 / RFU, EDEM3 / Fold change vs veh, EDEM3 / RFU, TMEM33 / Fold change vs veh, TMEM33 / RFU, WDR75 / Fold change vs veh, WDR75 / RFU, AHCTF1 / Fold change vs veh, AHCTF1 / RFU, TFRC / Fold change vs veh, TFRC / RFU, ZDHHC17 / Fold change vs veh, ZDHHC17 / RFU, NOM1 / Fold change vs veh, NOM1 / RFU, ARL8B / Fold change vs veh, ARL8B / RFU, ZBTB11 / Fold change vs veh, ZBTB11 / RFU, TAMM41 / Fold change vs veh, TAMM41 / RFU, KIAA1704 /// LOC100996395 / Fold change vs veh, KIAA1704 /// LOC100996395 / RFU, ING1 / Fold change vs veh, ING1 / RFU, TRMT61B / Fold change vs veh, TRMT61B / RFU, FUBP3 / Fold change vs veh, FUBP3 / RFU, TP53 / Fold change vs veh, TP53 / RFU, TNKS2 / Fold change vs veh, TNKS2 / RFU, ZFP14 / Fold change vs veh, ZFP14 / RFU, ACTR2 / Fold change vs veh, ACTR2 / RFU, PPP3R1 / Fold change vs veh, PPP3R1 / RFU, PIK3R1 / Fold change vs veh, PIK3R1 / RFU, HNRNPA1 / Fold change vs veh, HNRNPA1 / RFU, RNF170 / Fold change vs veh, RNF170 / RFU, ZNF28 / Fold change vs veh, ZNF28 / RFU, RNGTT / Fold change vs veh, RNGTT / RFU, OGT / Fold change vs veh, OGT / RFU, BRD1 / Fold change vs veh, BRD1 / RFU, MARS / Fold change vs veh, MARS / RFU, ZNF655 / Fold change vs veh, ZNF655 / RFU, FAHD1 / Fold change vs veh, FAHD1 / RFU, BDP1 / Fold change vs veh, BDP1 / RFU, LRRCC1 / Fold change vs veh, LRRCC1 / RFU, ARID1A / Fold change vs veh, ARID1A / RFU, ZNF146 / Fold change vs veh, ZNF146 / RFU, ZNF330 / Fold change vs veh, ZNF330 / RFU, GPN3 / Fold change vs veh, GPN3 / RFU, C9orf123 / Fold change vs veh, C9orf123 / RFU, N4BP2L2 / Fold change vs veh, N4BP2L2 / RFU, ARFIP1 / Fold change vs veh, ARFIP1 / RFU, FAM179B / Fold change vs veh, FAM179B / RFU, BCL10 / Fold change vs veh, BCL10 / RFU, UHRF1BP1L / Fold change vs veh, UHRF1BP1L / RFU, BET1 / Fold change vs veh, BET1 / RFU, CNOT2 / Fold change vs veh, CNOT2 / RFU, ZNF268 / Fold change vs veh, ZNF268 / Fold change vs veh, ZNF507 / RFU, DGCR2 / Fold change vs veh, DGCR2 / RFU, WDSUB1 / Fold change vs veh, WDSUB1 / Fold change vs veh, HSP90B1 /// MIR3652 / RFU, ADSS / Fold change vs veh, ADSS / RFU, GK / Fold change vs veh, GK / RFU, ZNF148 / Fold change vs veh, ZNF148 / RFU, TAF9 / Fold change vs veh, TAF9 / RFU, SLC1A5 / Fold change vs veh, SLC1A5 / RFU, SLMO2 / Fold change vs veh, SLMO2 / RFU, ABCC4 / Fold change vs veh, ABCC4 / RFU, LOC101060439 /// RAP1B / Fold change vs veh, LOC101060439 /// RAP1B / RFU, RFX7 / Fold change vs veh, RFX7 / RFU, GTPBP10 / Fold change vs veh, GTPBP10 / RFU, CNEP1R1 / Fold change vs veh, CNEP1R1 / RFU, BIVM-ERCC5 /// ERCC5 / Fold change vs veh, BIVM-ERCC5 /// ERCC5 / RFU, ILF3 / Fold change vs veh, ILF3 / RFU 11762660_at / Fold change /veh 11762660_at / RFU VCAN (11757783_s_at) / Fold change /veh VCAN (11757783_s_at) / RFU DDX43 (11728927_at) / Fold change /veh DDX43 (11728927_at) / RFU KRT8 (11758188_x_at) / Fold change /veh KRT8 (11758188_x_at) / RFU NKD1 (11759106_at) / Fold change /veh NKD1 (11759106_at) / RFU SRD5A1 (11742802_a_at) / Fold change /veh SRD5A1 (11742802_a_at) / RFU TPSAB1 /// TPSB2 (11721975_s_at) / Fold change /veh TPSAB1 /// TPSB2 (11721975_s_at) / RFU GSTM3 (11746129_a_at) / Fold change /veh GSTM3 (11746129_a_at) / RFU IL23R (11737362_x_at) / Fold change /veh IL23R (11737362_x_at) / RFU TMEM51 (11727254_a_at) / Fold change /veh TMEM51 (11727254_a_at) / RFU PIWIL2 (11732686_x_at) / Fold change /veh PIWIL2 (11732686_x_at) / RFU ORM1 (11744905_x_at) / Fold change /veh ORM1 (11744905_x_at) / RFU CCDC152 (11743942_at) / Fold change /veh CCDC152 (11743942_at) / RFU ECM1 (11717891_a_at) / Fold change /veh ECM1 (11717891_a_at) / RFU IL23R (11748794_a_at) / Fold change /veh IL23R (11748794_a_at) / RFU TNFAIP8L3 (11732012_x_at) / Fold change /veh TNFAIP8L3 (11732012_x_at) / RFU MBOAT4 (11741988_at) / Fold change /veh MBOAT4 (11741988_at) / RFU 11764193_at / Fold change /veh 11764193_at / RFU TMEM53 (11763286_at) / Fold change /veh TMEM53 (11763286_at) / RFU MAGEB2 (11727129_at) / Fold change /veh MAGEB2 (11727129_at) / RFU TMEM200A (11744735_a_at) / Fold change /veh TMEM200A (11744735_a_at) / RFU CCDC152 (11751479_a_at) / Fold change /veh CCDC152 (11751479_a_at) / RFU FAM211A (11726209_a_at) / Fold change /veh FAM211A (11726209_a_at) / RFU RGS16 (11746705_a_at) / Fold change /veh RGS16 (11746705_a_at) / RFU VCAN (11755009_s_at) / Fold change /veh VCAN (11755009_s_at) / RFU RHOB (11743442_s_at) / Fold change /veh RHOB (11743442_s_at) / RFU RGS16 (11720943_a_at) / Fold change /veh RGS16 (11720943_a_at) / RFU RGS16 (11720944_at) / Fold change /veh RGS16 (11720944_at) / RFU, VPS4B / Fold change vs veh, VPS4B / RFU, CREB1 / Fold change vs veh, CREB1 / RFU, DNAJC13 / Fold change vs veh, DNAJC13 / RFU, GNAQ / Fold change vs veh, GNAQ / RFU, CDK5R1 / Fold change vs veh, CDK5R1 / RFU, ZRANB3 / Fold change vs veh, ZRANB3 / RFU, CUL4A / Fold change vs veh, CUL4A / RFU, CCNY / Fold change vs veh, CCNY / RFU, UFL1 / Fold change vs veh, UFL1 / RFU, COG3 / Fold change vs veh, COG3 / RFU, DIAPH2 / Fold change vs veh, DIAPH2 / RFU, SKA2 / Fold change vs veh, SKA2 / RFU, AFF3 / Fold change vs veh, AFF3 / RFU, LMF1 / Fold change vs veh, LMF1 / RFU, IPO11 / Fold change vs veh, IPO11 / RFU, DFFB / Fold change vs veh, DFFB / RFU, FOXP1 / Fold change vs veh, FOXP1 / RFU, CARD8 / Fold change vs veh, CARD8 / RFU, STRN3 / Fold change vs veh, STRN3 / RFU, ADK / Fold change vs veh, ADK / RFU, RASSF2 / Fold change vs veh, RASSF2 / RFU, WIPF1 / Fold change vs veh, WIPF1 / RFU, LARP1B / Fold change vs veh, LARP1B / RFU, RASA1 / Fold change vs veh, RASA1 / RFU, RB1 / Fold change vs veh, RB1 / RFU, PPFIA1 / Fold change vs veh, PPFIA1 / RFU, MAT2A / Fold change vs veh, MAT2A / RFU, CCT5 / Fold change vs veh, CCT5 / RFU, WDR92 / Fold change vs veh, WDR92 / RFU, CUX1 / Fold change vs veh, CUX1 / RFU, TTC7A / Fold change vs veh, TTC7A / RFU, TMEM135 / Fold change vs veh, TMEM135 / RFU, DEPTOR / Fold change vs veh, DEPTOR / RFU, CPM / Fold change vs veh, CPM / RFU, DNAJB6 / Fold change vs veh, DNAJB6 / RFU, CACNA2D3 / Fold change vs veh, CACNA2D3 / RFU, DTX4 / Fold change vs veh, DTX4 / RFU, TFCP2 / Fold change vs veh, TFCP2 / RFU, GMCL1 /// GMCL1P1 / Fold change vs veh, GMCL1 /// GMCL1P1 / RFU, AEBP2 / Fold change vs veh, AEBP2 / RFU, SNHG1 /// SNORD22 /// SNORD25 /// SNORD26 /// SNORD27 /// SNORD28 /// SNORD29 /// SNORD31 / Fold change vs veh, SNHG1 /// SNORD22 /// SNORD25 /// SNORD26 /// SNORD27 /// SNORD28 /// SNORD29 /// SNORD31 / Fold change (Aza/veh), C12orf56 (ProbeSet 11735607_a_at) / Fold change (ACY-1035/veh), C12orf56 (ProbeSet 11735607_a_at) / Fold change (Aza/veh), FGFR1OP (ProbeSet 11751329_s_at) / Fold change (ACY-1035/veh), FGFR1OP (ProbeSet 11751329_s_at) / Fold change (Aza/veh), VPS36 (ProbeSet 11739960_a_at) / Fold change (ACY-1035/veh), VPS36 (ProbeSet 11739960_a_at) / RFU SYPL1 (11715823_x_at) / Fold change /veh SYPL1 (11715823_x_at) / RFU IGFBP7 (11715501_s_at) / Fold change /veh IGFBP7 (11715501_s_at) / RFU REEP3 (11722064_at) / Fold change /veh REEP3 (11722064_at) / RFU IGLL1 (11728026_x_at) / Fold change /veh IGLL1 (11728026_x_at): dose or concentration left out as unconfirmed
Conditions: ProbeSet 11725100_s_at; LIST B

Nc1ncn([C@@H]2O[C@H](CO)[C@@H](O)[C@H]2O)c(=O)n1 [azacitidine]
RFU, ESF1: 107.31 RFU
